Several values for one entry are separate records, joined by “and”; a condition that tells them apart may be missing. Equal values may be shown once. Entries after “also recorded” stand apart in the source; their conditions may differ.
Tests used:
[1] = system: cats; assay: hemodynamics and activity of intact heart in cats under anesthesia; format: in vivo; conditions: for Cardiac volume, change from basal level / Heart rate, change from basal level / Mean blood flow accelaration (aortic), change from basal level / Mean blood pressure, change from basal level / Stroke volume, change from basal level: cats
Procedure: The effects of compounds on the hemodynamics and activity of intact heart were studied in cats under anesthesia. The experiments were carried out under conditions of open chest. The phase curve of aortic blood flow was the main index of cardiac activity. The compounds were administered i.v. in physiological solution. The t-Student' test was used to estimate the statistical significance.

[2] = system: ventricular disturbances of heart rhythm; assay: arrhythmia in concious dogs according to Harris; format: in vivo; conditions: for % of the ectopic contractions / heart rate: concious dogs according to Harris, compound XX 1.0 mg/kg i.v., individual dogs
Procedure: The arrhythmia in concious dogs according to Harris. The experiments were conducted in mongrel dogs of either sex weighing 9-14 kg. Under anesthesia (40 mg/kg of nembutal i.v.) and artificial respiration the two-step occlusion of the left anterior descending coronary artery was performed. The constant ECG disturbances of the heart rhythm were recorded after 24 hours. […] T-Student' test was used for statistical calculation.

[3] = 1.0 mg/kg i.v., after injection
[4] = 2.0 mg/kg i.v., after injection
[5] = 10 min after compound injection
[6] = 15 min after compound injection
[7] = 20 min after compound injection
[8] = 30 min after compound injection
[9] = 40 min after compound injection
[10] = 50 min after compound injection

SMILES: CN(C)CCSc1nc2ccccc2n1CCc1ccccc1 [Compound XX, 1-(β-Phenylethyl)-2-[2-(dimethylamino)ethylthio]-benzimidazole]
- effect on contractile function of heart, in words ([1]; cats i.v., same doses as bradycardia): slightly enhanced the contractility of myocardium
- duration of bradycardia after administration ([1]; cats i.v., VIII 1,0, IX 0,5 and 1,0, XX 1,0 and 2,0 mg/kg): 30 min
- effect on heart rate, in words ([1]; cats i.v., VIII 1,0, IX 0,5 and 1,0, XX 1,0 and 2,0 mg/kg, XXIII 1.0, verapamil 0.5 mg/kg): expressed bradycardia
- Cardiac volume, change from basal level ([1]; 1.0 mg/kg i.v., after 2 min): +2.5 ± 0.9%
- Heart rate, change from basal level ([1]; 1.0 mg/kg i.v., after 2 min): −4.9 ± 1.5 %
- Mean blood flow accelaration (aortic), change from basal level ([1]; 1.0 mg/kg i.v., after 2 min): −1.4 +1.8%
- Mean blood pressure, change from basal level ([1]; 1.0 mg/kg i.v., after 2 min): ± 5.1 ± 1.7 %
- Stroke volume, change from basal level ([1]; 1.0 mg/kg i.v., after 2 min): +7.9 ± 1.6 %
- Cardiac volume, change from basal level ([1]; 1.0 mg/kg i.v., after 5 min): −3.9 ± 1.5%
- Heart rate, change from basal level ([1]; 1.0 mg/kg i.v., after 5 min): −5.2 ± 2.1%
- Mean blood flow accelaration (aortic), change from basal level ([1]; 1.0 mg/kg i.v., after 5 min): −3.6 ± 2.4%
- Mean blood pressure, change from basal level ([1]; 1.0 mg/kg i.v., after 5 min): +2.0 ± 1.0%
- Stroke volume, change from basal level ([1]; 1.0 mg/kg i.v., after 5 min): +1.7 ± 3.4%
- Cardiac volume, change from basal level ([1]; 1.0 mg/kg i.v., after 10 min): −3.9 ± 2.8%
- Heart rate, change from basal level ([1]; 1.0 mg/kg i.v., after 10 min): −4.3 ± 1.9%
- Mean blood flow accelaration (aortic), change from basal level ([1]; 1.0 mg/kg i.v., after 10 min): −0.6 ± 2.1%
- Mean blood pressure, change from basal level ([1]; 1.0 mg/kg i.v., after 10 min): +1.7 ± 1.2%
- Stroke volume, change from basal level ([1]; 1.0 mg/kg i.v., after 10 min): +0.6 ± 3.5%
- Cardiac volume, change from basal level ([1]; 1.0 mg/kg i.v., after 20 min): −4.1 ± 2.8%
- Heart rate, change from basal level ([1]; 1.0 mg/kg i.v., after 20 min): −5.0 ± 4.2%
- Mean blood flow accelaration (aortic), change from basal level ([1]; 1.0 mg/kg i.v., after 20 min): −2.8 ± 2.6%
- Mean blood pressure, change from basal level ([1]; 1.0 mg/kg i.v., after 20 min): +3.3 ± 2.4%
- Stroke volume, change from basal level ([1]; 1.0 mg/kg i.v., after 20 min): +1.4 ± 3.8%
- Cardiac volume, change from basal level ([1]; 1.0 mg/kg i.v., after 30 min): −7.0 ± 3.4%
- Heart rate, change from basal level ([1]; 1.0 mg/kg i.v., after 30 min): −5.0 ± 4.2%
- Mean blood flow accelaration (aortic), change from basal level ([1]; 1.0 mg/kg i.v., after 30 min): −3.2 ± 1.8%
- Mean blood pressure, change from basal level ([1]; 1.0 mg/kg i.v., after 30 min): +0.3 ± 3.0%
- Stroke volume, change from basal level ([1]; 1.0 mg/kg i.v., after 30 min): −0.5 ± 4.4%
- Heart rate, change from basal level [1, 3]: −7.9 ± 1.7 %
- Mean blood flow accelaration (aortic), change from basal level [1, 3]: +10.7 ± 3.3 %
- Mean blood pressure, change from basal level [1, 3]: −0.9 ± 2.7%
- Stroke volume, change from basal level [1, 3]: +25.2 ± 2.6 %
- Cardiac volume, change from basal level ([1]; 2.0 mg/kg i.v., after 2 min): +1.2 ± 2.8%
- Heart rate, change from basal level ([1]; 2.0 mg/kg i.v., after 2 min): −5.2 ± 1.8 %
- Mean blood flow accelaration (aortic), change from basal level ([1]; 2.0 mg/kg i.v., after 2 min): −3.0 ± 3.9%
- Mean blood pressure, change from basal level ([1]; 2.0 mg/kg i.v., after 2 min): ± 4.6 ± 3.5%
- Stroke volume, change from basal level ([1]; 2.0 mg/kg i.v., after 2 min): +6.9 ± 3.1%
- Cardiac volume, change from basal level ([1]; 2.0 mg/kg i.v., after 5 min): −0.5 ± 3.1%
- Heart rate, change from basal level ([1]; 2.0 mg/kg i.v., after 5 min): −4.5 ± 1.4 %
- Mean blood flow accelaration (aortic), change from basal level ([1]; 2.0 mg/kg i.v., after 5 min): +1.6 ± 5.1%
- Mean blood pressure, change from basal level ([1]; 2.0 mg/kg i.v., after 5 min): +3.3 ± 2.5%
- Stroke volume, change from basal level ([1]; 2.0 mg/kg i.v., after 5 min): +4.2 ± 3.8%
- Cardiac volume, change from basal level ([1]; 2.0 mg/kg i.v., after 10 min): −1.4 ± 3.0%
- Heart rate, change from basal level ([1]; 2.0 mg/kg i.v., after 10 min): −3.1 ± 1.6%
- Mean blood flow accelaration (aortic), change from basal level ([1]; 2.0 mg/kg i.v., after 10 min): −1.0 ± 3.1%
- Mean blood pressure, change from basal level ([1]; 2.0 mg/kg i.v., after 10 min): −1.0 ± 1.8%
- Stroke volume, change from basal level ([1]; 2.0 mg/kg i.v., after 10 min): +1.8 ± 2.1%
- Cardiac volume, change from basal level ([1]; 2.0 mg/kg i.v., after 20 min): −4.7 ± 5.2%
- Heart rate, change from basal level ([1]; 2.0 mg/kg i.v., after 20 min): −3.6 ± 1.7%
- Mean blood flow accelaration (aortic), change from basal level ([1]; 2.0 mg/kg i.v., after 20 min): −3.8 ± 4.0%
- Mean blood pressure, change from basal level ([1]; 2.0 mg/kg i.v., after 20 min): −5.3 ± 0.8 %
- Stroke volume, change from basal level ([1]; 2.0 mg/kg i.v., after 20 min): −1.1 ± 5.4%
- Cardiac volume, change from basal level ([1]; 2.0 mg/kg i.v., after 30 min): −5.5 ± 5.2%
- Heart rate, change from basal level ([1]; 2.0 mg/kg i.v., after 30 min): −4.0 ± 2.2%
- Mean blood flow accelaration (aortic), change from basal level ([1]; 2.0 mg/kg i.v., after 30 min): −6.2 ± 4.9%
- Mean blood pressure, change from basal level ([1]; 2.0 mg/kg i.v., after 30 min): −9.6 ± 3.5%
- Stroke volume, change from basal level ([1]; 2.0 mg/kg i.v., after 30 min): +1.7 ± 3.9%
- Cardiac volume, change from basal level [1, 4]: +22.7 ± 6.6 %
- Heart rate, change from basal level [1, 4]: −10.7 ± 2.5 %
- Mean blood flow accelaration (aortic), change from basal level [1, 4]: +22.5 ± 9.3%
- Mean blood pressure, change from basal level [1, 4]: −13.6 ± 5.1%
- Stroke volume, change from basal level [1, 4]: +38.5 ± 10.6 %
- % of the ectopic contractions ([2]; 3 min after compound injection): 64% and 30% and 72% and 80%
- heart rate ([2]; 3 min after compound injection): 93 beats/min and 172 beats/min and 145 beats/min and 103 beats/min
- % of the ectopic contractions ([2]; 5 min after compound injection): 52% and 20% and 63% and 82%
- heart rate ([2]; 5 min after compound injection): 89 beats/min and 167 beats/min and 138 beats/min and 98 beats/min
- % of the ectopic contractions [2, 5]: 50% and 18% and 60% and 81%
- heart rate [2, 5]: 102 beats/min and 163 beats/min and 129 beats/min and 75 beats/min
- % of the ectopic contractions [2, 6]: 51% and 0% and 58% and 91%
- heart rate [2, 6]: 88 beats/min and 159 beats/min and 125 beats/min and 100 beats/min
- % of the ectopic contractions [2, 7]: 56% and 0% and 66% and 92%
- heart rate [2, 7]: 74 beats/min and 155 beats/min and 132 beats/min and 78 beats/min
- % of the ectopic contractions [2, 8]: 62% and 10% and 74% and 91%
- heart rate [2, 8]: 94 beats/min and 168 beats/min and 135 beats/min and 117 beats/min
- % of the ectopic contractions [2, 9]: 66% and 8% and 79% and 97%
- heart rate [2, 9]: 105 beats/min and 185 beats/min and 148 beats/min and 106 beats/min
- % of the ectopic contractions [2, 10]: 63% and 10% and 81% and 94%
- heart rate [2, 10]: 128 beats/min and 198 beats/min and 159 beats/min and 109 beats/min
- antiarrhythmic effect, in words ([2]; concious dogs with ventricular disturbances of heart rhythm, i.v.): pronounced antiarrhythmic effect
- effect on heart rate, in words ([2]; concious dogs, i.v.): pronounced bradycardia
- tolerability / side effects, in words ([2]; concious dogs, i.v.): well tolerated by the animals; also recorded: no side effects

— patent publication US6376666B1 (Nauchno-Issledovatelsky Institut Farmakologii Rossiiskoi …, priority 1994, dated 2002)
